Structures are written as SMILES.

As a reminder, the IC50 is the concentration at which inhibition is half-maximal.

The test system of assay [1] is Human RAR-related Orphan Receptor Gamma (RORγ). Put plainly: RORγ assay (GAL4-RORγ hybrid luciferase reporter, Indigo Biosciences). The assay is classed as cell-based. Particulars: GAL4-RORγ reporter cells, 23 hours. From the text: B. RORγ Assay and Cell Viability
The RORγ assay system was purchased from Indigo Biosciences. This nuclear receptor assay utilizes a human cell line that has been engineered to express a hybrid form of the Human RAR-related Orphan Receptor Gamma (RORγ) at high levels. The N-terminal DNA binding domain (DBD) of the native RORγ receptor was substituted with the yeast GAL4-DBD to generate the GAL4-RORγ hybrid nuclear receptor. The reporter cell line is transfected with a plasmid that encodes the beetle luciferase gene under the control of the GAL4 upstream activating sequence (UAS). GAL4 binds to the UAS and increases transcription of downstream target genes. […] To assess the RORγ inverse-agonist activity of the test compounds, reporter cells were plated in white 96-well plates in triplicate and were treated with DMSO (vehicle) or test compound (concentration ranges of 0.4-200 nM or 2-1000 nM) at 37° C. with 5% CO2 in a humidified atmosphere for 23 hours. After this incubation, luciferin was added to the wells and luciferase activity was determined by measuring the luminescence signal using a BMG Pherastar microplate reader. Viability was determined using the Live Cell Multiplex Assay (Indigo Biosciences). Values from test compound samples were normalized to those from DMSO-treated samples. Data were analyzed using GraphPad Prism version 6.00 for Windows (GraphPad Software, La Jolla Calif. USA). A non-linear regression analysis with log (inhibitor) vs. normalized response using a variable slope was applied to fit the data and determine the IC50 values for inhibition of RORγ and cell viability.
For orientation: In a reporter assay the amount or activity of a reporter protein is the signal.

Assay [2] concerns Nrf2 transcription factor (GST ARE luciferase reporter in AREc32 cells). Description: AREc32 luciferase reporter assay. The assay is classed as cell-based, human. Particulars: EC2×: concentration required to increase GST ARE luciferase reporter activity by 2-fold, 19 hours. Put shortly:
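AREc32 cells (MCF-7 carrying luciferase under eight rat GSTA2 ARE copies) treated with compound; luciferase measured by ONE-Glo luminescence. Signal normalised to DMSO wells as fold-induction, fitted by variable-slope log(agonist)-response regression, with EC2× interpolated from the curve.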

Assay [3] has as its system IL-17A levels in primary human CD4+ T cells differentiated into Th17 cells. Description: IL-17 release from differentiated primary human T-cells (IL-17A HTRF). The assay is classed as cell-based. The following applies: primary human CD4+ T cells, Th17 differentiation, 46-hour incubation; read-out: hIL17 IC50. In a few lines: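 Cryopreserved primary human CD4+ T cells were activated with CD3/CD28 beads (1:2.5) and driven to Th17 with TGF-β 5, IL-6 20, IL-23 20, IL-10 10 ng/mL in ≤0.1% DMSO for 46 h at 37° C, in triplicate. Supernatant IL-17A was measured by HTRF and viability by CyQuant normalized to DMSO. IC50s came from variable-slope nonlinear regression.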
For orientation: In TR-FRET formats the signal depends on donor and acceptor labels being close together.

Regarding `COc1nc(CCNC=O)nc2c1CC[C@@H]1[C@@H](C)C(=O)C(C#N)=C[C@@]21C` [T11], the IC50 in assay [1] was greater than 2000 nM. Further, the “HRF2 ARE 2×” value in assay [2] stood at 2438 nM.

`C[C@H]1C(=O)C(C#N)=C[C@@]2(C)c3nc(-c4ccncc4)nc(O)c3CC[C@H]12` [T17] displayed a 50% inhibitory concentration (IC50) in assay [1] greater than 2000 nM. In addition, in assay [2], the “HRF2 ARE 2×” value is reported as 839 nM.

Consider `C[C@H]1C(=O)C(C#N)=C[C@@]2(C)c3nc(-c4ccnc5ccccc45)nc(NS(C)(=O)=O)c3CC[C@H]12` [T98], for which the IC50 in assay [1] is greater than 2000 nM; in assay [3], greater than 1000 nM. Besides, the “HRF2 ARE 2×” value in assay [2] is on record as greater than 2000 nM.

The compound `C[C@H]1C(=O)C(C#N)=C[C@@]2(C)c3nc(-c4ccnc(CCC(=O)O)c4)nc(-c4ccccc4F)c3CC[C@H]12` [T150] returned a half-inhibitory concentration (IC50) in assay [1] greater than 2000 nM. Also, the “HRF2 ARE 2×” value in assay [2] was greater than 2000 nM.

`Cc1cc(-c2nc(-c3ccc(F)cc3)c3c(n2)[C@]2(C)CC(C(N)=O)C(=O)[C@H](C)[C@H]2CC3)ccn1` (some centres unmarked) [T185] yielded a half-inhibitory concentration (IC50) in assay [1] greater than 2000 nM. Further, in assay [2], the “HRF2 ARE 2×” value is greater than 2000 nM.
